Laboratory results published in the supplement of paper PMC12613149.
Counter-ions that a name gives are not always drawn.

Key:
[1] = reversed-phase LC retention time (C18, 15 min MeOH gradient); higher = more hydrophobic / later elution
[2] = collision cross section (TIMS, N2 drift gas) of the primary ion; higher = larger gas-phase ion size
[3] = ionization mode: ESI+, ion species: [M+H]+
[4] = ionization mode: ESI-, ion species: [M-H]-

SMILES | reversed-phase LC retention time [1, 3] [min] | reversed-phase LC retention time [1, 4] [min] | collision cross section [2, 3] [Å²] | collision cross section [2, 4] [Å²]
COCC(C)N(C(=O)C(=O)O)c1c(C)csc1C (centres undefined) [Dimethenamid OA] | 11.3 | 10.5 | 155.28 | 161.26
CNC(=O)c1cc(Oc2ccc(NC(=O)Nc3ccc(Cl)c(C(F)(F)F)c3)cc2)ccn1 | 15.8 | 16.2 | 214.28 | 218.21
C[C@H]1c2cccc(O)c2C(=O)C2=C(O)[C@]3(O)C(=O)C(C(N)=O)=C(O)[C@@H](N(C)C)[C@@H]3[C@@H](O)[C@@H]21 [Doxycycline] |  | 10.2 |  | 197.93
COC(=O)Nc1nc2ccc(C(=O)c3ccccc3)cc2[nH]1 [Mebendazole] | 12.4 | 13 | 175.29 | 173.87
CCN(CC)CC#CCOC(=O)C(O)(c1ccccc1)C1CCCCC1 (centres undefined) [Oxybutynin] | 13.4 |  | 187.9 | 
CCCCC(CC)CNCC(CC)CCCC (centres undefined) [Di(2-ethylhexyl)amine] | 14.8 |  | 171.64 | 
CNC(=O)Oc1cc(C)c(S(C)(=O)=O)c(C)c1 [Methiocarb sulfone] | 9.59 |  | 162.89 | 
CC(C)(c1ccc(O)cc1)c1ccc(O)cc1 [Bisphenol A] |  | 13.4 |  | 161.33
C[C@]12C=CC(=O)C=C1CC[C@@H]1[C@@H]2[C@@H](O)C[C@@]2(C)[C@H]1CC[C@]2(O)C(=O)CO [Prednisolone] |  | 11.9 |  | 182.17
C/C=C/C(=O)N(CC)c1ccccc1C [Crotamiton] | 14 |  | 144.88 | 
O=P(O)(Oc1ccccc1)Oc1ccccc1 [Diphenylphosphate] | 17.6 | 10.8 | 155.07 | 152.14
CN(C)[C@@H]1C(O)=C(C(N)=O)C(=O)[C@@]2(O)C(O)=C3C(=O)c4c(O)cccc4[C@@](C)(O)[C@H]3[C@H](O)[C@@H]12 [Oxytetracycline] | 8.42 |  | 198.92 | 
O=P(OC(CCl)CCl)(OC(CCl)CCl)OC(CCl)CCl [TDCPP] | 15.5 |  | 177.62 | 
c1ccc2[nH]nnc2c1 [Benzotriazole] | 7.82 |  | 119.49 | 
CCCN(CCC)CCc1cccc2c1CC(=O)N2 [Ropinirole] | 7.95 |  | 163.51 | 
CC(C)(Oc1ccc(CCNC(=O)c2ccc(Cl)cc2)cc1)C(=O)O [Bezafibrate] | 14 | 12.3 | 179.03 | 181.16
CN(C)Cc1cc(C(C)(C)C)c(O)c(C(C)(C)C)c1 [2,6-Di-tert-Butyl-4-(dimethylamino)methylphenol] | 12.7 | 17.1 | 176.35 | 173.06
Cc1cnc2c(C(=O)O)c(Cl)ccc2c1 [Quinmerac] | 9.27 |  | 139.87 | 
CC(Oc1ccc(Oc2ncc(C(F)(F)F)cc2Cl)cc1)C(=O)O (centres undefined) [Haloxyfop-P] | 15.5 | 14 | 181.48 | 190.86
CC[C@H](C)[C@H]1O[C@]2(CC[C@@H]1C)C[C@@H]1C[C@@H](C/C=C(\C)[C@@H](O[C@H]3C[C@H](OC)[C@@H](O[C@H]4C[C@H](OC)[C@@H](O)[C@H](C)O4)[C@H](C)O3)[C@@H](C)/C=C/C=C3\CO[C@@H]4[C@H](O)C(C)=C[C@@H](C(=O)O1)[C@]34O)O2 [Ivermectin B1a] |  | 19.5 |  | 292.22
O=C(Nc1ccccc1)c1ccccc1SSc1ccccc1C(=O)Nc1ccccc1 [2,2'-Dithiobisbenzanilide] | 16.2 |  | 195.49 | 
CCCCCCCCCCCCCCCC(=O)NCCO [Palmitoylethanolamide] | 18.3 |  | 193.35 | 
COc1ccc2cc(C(C)C(=O)O)ccc2c1 (centres undefined) [Naproxen] | 13.8 |  | 151.76 | 
Cc1ccc(OS(=O)(=O)[O-])cc1 [p-Tolyl Sulfate] |  | 7.34 |  | 135.45
COC(=O)N(C(=O)N1CO[C@@]2(C(=O)OC)Cc3cc(Cl)ccc3C2=N1)c1ccc(OC(F)(F)F)cc1 [Indoxacarb] | 16.2 |  | 206.73 | 
CC(C)c1cc(C(C)(C)c2ccc(O)c(C(C)C)c2)ccc1O [Bisphenol G] |  | 16.8 |  | 187.67
Nc1ccc(Cc2ccc(N)cc2)cc1 [4,4'-Methylenedianiline] | 5.68 |  | 162.72 | 
c1ccc2c(c1)[nH]c1cnccc12 [Norharmane] | 8.24 | 12.9 | 132.84 | 129.43

SMILES | reversed-phase LC retention time [1, 3] [min] | reversed-phase LC retention time [1, 4] [min] | collision cross section [2, 3] [Å²] | collision cross section [2, 4] [Å²]
CCNc1nc(Cl)nc(NC(C)(C)C)n1 [Terbuthylazine] | 14 |  | 153.3 | 
Nc1ccc(-c2ccc(N)cc2)cc1 [Benzidine] | 3.98 |  | 155.46 | 
Oc1ccc(C(c2ccc(O)cc2)(C(F)(F)F)C(F)(F)F)cc1 [Bisphenol AF] |  | 14.8 |  | 165.55
CCCC1COC(Cn2cncn2)(c2ccc(Cl)cc2Cl)O1 (centres undefined) [Propiconazole] | 15.7 |  | 179.72 | 
CCCCCCCCCCC[C@@H](C[C@@H]1OC(=O)[C@H]1CCCCCC)OC(=O)[C@H](CC(C)C)NC=O [Orlistat] |  | 19.9 |  | 232.61
CC(C)(C)CC(C)(C)c1ccc(O)cc1 [4-tert-Octylphenol] |  | 17.3 |  | 156.39
CCC1(C2OC(C3OC(O)(CO)C(C)CC3C)CC2C)CCC(C2(C)CCC3(CC(O)C(C)C(C(C)C(OC)C(C)C(=O)O)O3)O2)O1 (centres undefined) [Monensin] |  | 17.5 |  | 244.26
CC1COC(Cn2cncn2)(c2ccc(Oc3ccc(Cl)cc3)cc2Cl)O1 (centres undefined) [Difenoconazole] | 16.1 |  | 202.11 | 
CC(C)N1C(=O)c2ccccc2NS1(=O)=O [Bentazone] |  | 7.56 |  | 145.72
c1ccc2c(c1)[nH]c1ccncc12 [5-Carboline] | 7.64 | 11.6 | 132.8 | 129.23
Nc1ccc2c(n1)[nH]c1ccccc12 [2-Amino-9H-pyrido[2,3-b]indole (AalphaC)] |  | 12 |  | 135.27
CSc1nnc(C(C)(C)C)c(=O)n1N [Metribuzin] | 11.4 |  | 147.77 | 
COc1ccccc1Oc1c(NS(=O)(=O)c2ccc(C(C)(C)C)cc2)nc(-c2ncccn2)nc1OCCO [Bosentan] | 14.8 |  | 231.31 | 
CCCCCCCC/C=C\CCCCCCCCCCCC(N)=O [Erucamide] | 19.6 |  | 200.01 | 
CCC[C@H]1CCCCN1 [Coniine] | 6.79 |  | 129.06 | 
CC(=O)OCC(=O)[C@@]12OC3(CCCC3)O[C@@H]1C[C@H]1[C@@H]3CCC4=CC(=O)C=C[C@]4(C)[C@@]3(F)[C@@H](O)C[C@@]12C [Amcinonide] | 15.6 |  | 217.58 | 
CCOC(=O)C1=C(C)NC(C)=C(C(=O)OC)C1c1cccc([N+](=O)[O-])c1 (centres undefined) [Nitrendipin] | 14.4 | 14.7 | 184.47 | 183.62
COCC(=O)N(c1c(C)cccc1C)C(C)C(=O)OC (centres undefined) [Metalaxyl] | 12.7 |  | 160.45 | 
CN1CCN2c3ncccc3Cc3ccccc3C2C1 (centres undefined) [Mirtazapine] | 9.54 |  | 160.18 | 
CCCN(CC)CC1COC2(CCC(C(C)(C)C)CC2)O1 (centres undefined) [Spiroxamine] | 14.2 |  | 177.53 | 
O=P1(N(CCCl)CCCl)NCCCO1 (centres undefined) [Cyclophosphamide] | 10.5 |  | 147.43 | 
O=c1[nH]c2c(c(=O)n1C1CCCCC1)CCC2 [Lenacil] | 12.8 |  | 157.13 | 
Nc1ccc(Cl)cc1 [4-Chloroaniline] | 8.59 |  | 114.68 | 
Cn1c(N)nc2c3cccnc3ccc21 [2-Amino-3-methyl-imidazo[4,5-f]quinoline (IQ)] | 6.04 | 8.79 | 138.89 | 139.48
Cc1cc(Cc2cc(C)cc(C(C)(C)C)c2O)c(O)c(C(C)(C)C)c1 [2,2'-Methylenebis(6-tert-butyl-p-cresol)] |  | 18.8 |  | 196.67
CCOP(=S)(OCC)Oc1cc(C)nc(C(C)C)n1 [Diazinon] | 15.6 |  | 172.11 | 
CC(=O)[C@@]1(O)CC[C@H]2[C@@H]3C[C@H](C)C4=CC(=O)CC[C@]4(C)[C@H]3CC[C@@]21C [Medroxyprogesterone] | 15.1 | 15.6 | 187.34 | 188.11
